Source: US6737383B1, “Herbicidal oxadiazolidines” (priority 1999, dated 2004)

Key:
duck salad = experiment: Test B flood test duck salad; type: in vivo, Heteranthera limosa
In short: (§1)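 Plants were grown to the 2-leaf stage before treatment with test chemical, then held in a greenhouse for twelve to sixteen days. Injury was visually rated against untreated controls on a 0–10 scale, where 0 is no effect and 10 is complete control.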

smallflower flatsedge = experiment: Test B flood test smallflower flatsedge; type: in vivo, Cyperus difformis
In short: as §1

soybean = experiment: Test B pre/postemergence soybean; type: in vivo, Glycine max; details: for Soybean plant response rating (0 to 10 scale): 0 is no effect
In short: (§2)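 Test chemicals in a non-phytotoxic solvent mixture with surfactant were sprayed preemergence onto planted seeds and postemergence onto plants 2 to 18 cm tall (1- to 4-leaf stage). After twelve to sixteen days in a greenhouse, injury was visually rated against untreated controls from 0 (no effect) to 10 (complete control).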

velvetleaf = experiment: Test B pre/postemergence velvetleaf; type: in vivo, Abutilon theophrasti
In short: as §2

[1] = Rate 62 g/ha, headed Pre-emergence (flood test species), scale 0 to 10 (0 no effect, 10 complete control)
[2] = Rate 125 g/ha, Pre-emergence, flood test species, scale 0 to 10 where 0 is no effect and 10 is complete control
[3] = Rate 250 g/ha, Pre-emergence, flood-test species, scale 0 to 10, 0 is no effect, 10 is complete control
[4] = Rate 500 g/ha, headed Pre-emergence (flood test species), scale 0 to 10 (0 no effect, 10 complete control)
[5] = Rate 500 g/ha, Pre-emergence, flood test species, scale 0 to 10 (0 no effect, 10 complete control)
[6] = Preemergence, Rate 62 g/ha, scale of 0 to 10 where 0 is no effect and 10 is complete control
[7] = Preemergence, Rate 125 g/ha, 10 is complete control
[8] = Preemergence, Rate 250 g/ha, scale 0 to 10, 0 is no effect, 10 is complete control
[9] = Preemergence, Rate 500 g/ha, scale 0 to 10 (0 no effect, 10 complete control)
[10] = Rate 62 g/ha, Postemergence, scale of 0 to 10 where 0 is no effect and 10 is complete control
[11] = Rate 125 g/ha, Postemergence, scale 0 to 10
[12] = Rate 500 g/ha, Postemergence, scale 0 to 10
[13] = Preemergence, Rate 500 g/ha, scale of 0 to 10 where 0 is no effect and 10 is complete control
[14] = Rate 62 g/ha, flood test species, Pre-emergence, visual evaluation after twelve to sixteen days
[15] = Rate 125 g/ha, under heading Pre-emergence, flood test species, visual evaluation after twelve to sixteen days
[16] = Rate 250 g/ha, Pre-emergence (flood test species), scale 0 to 10, 0 is no effect, 10 is complete control
[17] = Rate 500 g/ha, Pre-emergence section of Table B, 0 to 10 scale (0 no effect, 10 complete control)
[18] = Postemergence, Rate 125 g/ha, scale 0 to 10, 0 is no effect, 10 is complete control
[19] = Postemergence, Rate 500 g/ha, scale 0 to 10, 0 is no effect, 10 is complete control
[20] = Preemergence, Rate 125 g/ha, scale 0 to 10, 0 is no effect, 10 is complete control
[21] = Preemergence, Rate 500 g/ha, scale 0 to 10, 0 is no effect, 10 is complete control
[22] = Rate 62 g/ha, Postemergence, scale 0 to 10, 0 no effect, 10 complete control
[23] = Preemergence, Rate 250 g/ha, scale of 0 to 10 where 0 is no effect and 10 is complete control
[24] = Rate 125 g/ha, Preemergence, scale of 0 to 10 where 0 is no effect and 10 is complete control
[25] = Rate 500 g/ha, Postemergence, scale 0 to 10, 0 no effect, 10 complete control

Compound	Ducksalad plant response rating (duck salad; [1])	Ducksalad plant response rating (duck salad; [2])	Ducksalad plant response rating (duck salad; [3])	Plant response rating, Ducksalad (duck salad; [4])	S. Flatsedge plant response rating (smallflower flatsedge; [1])	S. Flatsedge plant response rating (smallflower flatsedge; [2])	S. Flatsedge plant response rating (smallflower flatsedge; [3])	S. Flatsedge plant response rating (smallflower flatsedge; [5])	Soybean plant response rating (soybean; [6])	Soybean plant response rating (0 to 10 scale) (soybean; [7])	Soybean plant response rating (soybean; [8])	Soybean plant response rating (soybean; [10])	Soybean plant response rating (soybean; [11])	Plant response rating (0 to 10; 0 is no effect, 10 is complete control), Soybean (soybean; Rate 250 g/ha, Postemergence)	Soybean plant response rating (soybean; [12])	Velvetleaf plant response rating (velvetleaf; [6])	Velvetleaf plant response rating (velvetleaf; [8])	Velvetleaf plant response rating (velvetleaf; [10])	Velvetleaf plant response rating (velvetleaf; [11])	Plant response rating (0 to 10; 0 is no effect, 10 is complete control), Velvetleaf (velvetleaf; Rate 250 g/ha, Postemergence)	further results
CCN(C(=O)n1oc(=O)n(C(C)C)c1=O)c1nncs1 [Compound 190]	0	0	0	0	0	0	0	0	0	0	0	0	0	0	0	0	0	0	0	0	Soybean plant response rating (soybean; [9]): 0; Velvetleaf plant response rating (velvetleaf; [9]): 0
Cc1nc(C)c(-n2c(=O)on(C(=O)N(c3ccccc3)C(C)C)c2=O)s1 [Compound 197]	0	0	0	0	0	0	0	0	0	0	0	0	0	0	0	0	0	0	0	0	Plant response rating, Soybean (soybean; [13]): 0; Plant response rating, Velvetleaf (velvetleaf; [13]): 0
CC(C)C(=O)Cn1c(=O)on(C(=O)N(c2ccc(F)cc2F)C(C)C)c1=O [Compound 486]	–	–	–	–	–	–	–	–	–	–	0	–	–	–	–	–	0	–	–	–	Plant response rating, Ducksalad (0 to 10 scale, 0 is no effect, 10 is complete control) (duck salad; [14]): 0; Ducksalad plant response rating (0 to 10 scale, 0 is no effect, 10 is complete control) (duck salad; [15]): 0; Ducksalad plant response rating (duck salad; [16]): 0; Ducksalad plant response rating (duck salad; [17]): 0; Plant response rating, S. Flatsedge (0 to 10 scale, 0 is no effect, 10 is complete control) (smallflower flatsedge; [14]): 0; S. Flatsedge plant response rating (0 to 10 scale, 0 is no effect, 10 is complete control) (smallflower flatsedge; [15]): 0; S. Flatsedge plant response rating (smallflower flatsedge; [16]): 0; S. Flatsedge plant response rating (smallflower flatsedge; [17]): 0; Soybean plant response rating (soybean; [18]): 4; Plant response rating, Soybean (soybean; [19]): 4; Plant response rating, Soybean (soybean; [6]): 0; Soybean plant response rating (soybean; [20]): 0; Soybean plant response rating (soybean; [21]): 2; Soybean plant response rating (soybean; [22]): 4; Velvetleaf plant response rating (velvetleaf; [18]): 0; Plant response rating, Velvetleaf (velvetleaf; [19]): 6; Plant response rating, Velvetleaf (velvetleaf; [6]): 0; Velvetleaf plant response rating (velvetleaf; [20]): 0; Velvetleaf plant response rating (velvetleaf; [21]): 0; Velvetleaf plant response rating (velvetleaf; [22]): 0
CCN(C(=O)n1oc(=O)n(C)c1=O)C1CCCCC1 [Compound 228]	0	0	0	–	0	0	0	0	0	–	–	0	0	1	–	0	–	0	0	0	Ducksalad plant response rating (duck salad; [5]): 0; Soybean plant response rating (soybean; [23]): 0; Plant response rating, Soybean (soybean; [13]): 0; Soybean plant response rating (soybean; [24]): 0; Soybean plant response rating (soybean; [25]): 1; Velvetleaf plant response rating (velvetleaf; [23]): 0; Plant response rating, Velvetleaf (velvetleaf; [13]): 0; Velvetleaf plant response rating (velvetleaf; [24]): 0; Velvetleaf plant response rating (velvetleaf; [25]): 0
